Measurements reported in PubChem BioAssay (NCI).
Several values for one entry are separate records, joined by “and”; a condition that tells them apart may be missing. Identical values can stand only once.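 All cell lines were grown in 96-well plates and treated with compound for 48 hours. At the GI50, growth is halved. TGI: total growth inhibition.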

Tests used:
Assay in all cases: DTP human tumour cell line panel, 48 h
BT-549 breast = tested on: BT-549 breast
PC-3 prostate = tested on: PC-3 prostate
A498 renal = tested on: A498 renal
UACC-62 melanoma = tested on: UACC-62 melanoma
SK-MEL-28 melanoma = tested on: SK-MEL-28 melanoma
NCI/ADR-RES ovarian = tested on: NCI/ADR-RES ovarian
HOP-62 NSCLC = tested on: HOP-62 NSCLC
OVCAR-4 ovarian = tested on: OVCAR-4 ovarian
KM12 colon = tested on: KM12 colon
SF-295 CNS = tested on: SF-295 CNS

| SMILES | GI50 (BT-549 breast) [µM] | TGI (BT-549 breast) [µM] | GI50 (PC-3 prostate) [µM] | TGI (PC-3 prostate) [µM] | GI50 (A498 renal) [µM] | TGI (A498 renal) | GI50 (UACC-62 melanoma) [µM] | TGI (UACC-62 melanoma) | GI50 (SK-MEL-28 melanoma) [µM] | TGI (SK-MEL-28 melanoma) [µM] | GI50 (NCI/ADR-RES ovarian) [µM] | TGI (NCI/ADR-RES ovarian) | GI50 (HOP-62 NSCLC) [µM] | TGI (HOP-62 NSCLC) [µM] | GI50 (OVCAR-4 ovarian) [µM] | TGI (OVCAR-4 ovarian) [µM] | GI50 (KM12 colon) [µM] | TGI (KM12 colon) [µM] | GI50 (SF-295 CNS) [µM] | TGI (SF-295 CNS) |
| --- | --- | --- | --- | --- | --- | --- | --- | --- | --- | --- | --- | --- | --- | --- | --- | --- | --- | --- | --- | --- |
| CN1CCN(Cc2ccc(NC(=O)c3cccc(C#Cc4c(N)ncc5ccc(F)cc45)c3)cc2C(F)(F)F)CC1 | 2.11 | 6.66 | 0.852 | 1.86 | 0.578 | 1.26 µM | 0.698 | 1.4 µM | 0.79 | 1.53 | 1.02 | 2.55 µM | 0.795 | 1.65 | 0.511 | 1.77 | 0.121 | 0.754 | 0.917 | 1.78 µM |
| CC1=CC2=C(C#N)C(=O)OC2(C)C(c2ccccc2)C1 (stereo not drawn) | – | > 100 | – | > 100 | – | > 100 µM | – | > 100 µM | – | > 100 | – | > 100 µM | – | > 100 | – | > 100 | – | > 100 | – | > 100 µM |
| NC(N)=NC(N)=Nc1ccc(S(N)(=O)=O)cc1 | – | > 100 | – | > 100 | – | > 100 µM | – | > 100 µM | – | > 100 | – | > 100 µM | – | > 100 | – | > 100 | – | > 100 | – | > 100 µM |
| CCN(CC)CCOc1ccc(Cc2ccccc2)cc1 | 31.4 | > 100 | 26.2 | > 100 | 19.3 | 87 µM | 30.8 | > 100 µM | 38.5 | > 100 | 26.2 | > 100 µM | 32.4 | > 100 | 33.5 | > 100 | 25.6 | > 100 | 13.2 | 31.4 µM |
| CCC1(N)C(=O)OCc2c1cc1n(c2=O)Cc2cc3ccccc3nc2-1 (stereo not drawn) | – | > 100 | – | > 100 | 10.6 | 34.4 µM and 46.2 µM | 3.89 | 20.5 µM and 14.1 µM | 41.7 | > 100 | 7.18 | > 54.1 µM and 61.3 µM | 4.77 | > 100 | 38.2 | > 100 | 26.1 | > 100 | 3.45 | 50.2 µM and > 100 µM |
| O=C(Nc1ccc(N2CCNCC2)cn1)c1[nH]ncc1Nc1ncnc2sccc12 | 1.83 | 4.13 | 1.59 | 3.65 | 13.4 | 31.5 µM | 2.6 | 7.33 µM | 1.95 | 3.83 | > 100 | > 100 µM | 2.99 | 14.7 | 1.69 | 3.63 | 3.31 | 11.5 | 11.9 | 28.9 µM |
